pIC50: −log10 of the molar value. Read-outs that look alike come from different tables or passages of the source.
What was measured:
[1] = system: DU 145 Human Prostate Carcinoma Xenografts; conditions: DU145, i.v. qd x 1 (mg/kg: Taxol 24, 1351 107.6, 1393 72.6, 1401 107.6, 1418 107.6, 1424 195.1)
Experimental: (§1) Other antitumor compounds were similarly formulated. […] The dosing volume was 0.3 ml per 20 g mouse.
Male NCr-nude mice (implanted subcutaneously with 1 mm^3 DU145 prostate carcinoma fragments in the flank) were sorted into treatment groups of five mice each. […] Dosing was initiated on Day 1. The antitumor compounds were given i.v. at an estimated maximum tolerated dose (MTD) appropriate for each agent on a qd x 1 schedule (single administration of compound). […] The vehicle was administered i.v. to control mice in Group 1 on the qd x 1 schedule. The study was terminated on Day 91. Treatment groups are detailed in Table 5.
(§2) The mean days of survival is the number of days after which a neoplasm reached a size of 1.5 g and the animal was euthanized. A complete response is obtained if the tumor is not palpable at the end of the study. A partial response is obtained if the tumor shrinks to a size smaller than its size on Day 1 of the study. […]

[2] = system: A375 Human Melanoma Xenografts; conditions: A375, i.v. qd x 1 (mg/kg: Taxol 24, 1351 107.6, 1393 72.6, 1401 107.6, 1418 107.6, 1424 195.1, Taxotere 70)
Experimental: as §1
Female NCr-nude mice (implanted subcutaneously with 1 mm^3 A375 melanoma in the flank) were sorted into treatment groups of six mice each, except for the Taxotere group having seven mice each. […] Dosing was initiated on Day 1. The antitumor compounds were given i.v. at an estimated maximum tolerated dose (MTD) appropriate for each agent on a qd x 1 schedule (single administration of compound). […] Taxotere was given i.v. on a qd x 1 schedule at a dose of 70 mg/kg. The vehicle was administered i.v. to control mice in Group 1 on the qd x 1 schedule. Treatment groups are detailed in Table 9. The study was terminated on Day 60.
as §2, with “The results are summarized in Table 10 and include mean days of survival (MDS), number of toxic deaths, number of survivors, number of complete or partial responses, and number with stable disease. The” for “The”, “tumor” for “neoplasm”, “2.0” for “1.5”

[3] = system: Panc-1 Human Pancreatic Carcinoma Xenografts; conditions: i.v. qd x 1 at estimated MTD; 6 mice/group; study end Day 63
Experimental: (§3) Other antitumor compounds were similarly formulated. […] The dosing volume was 0.3 mL per 20 g mouse.
Female NCr-nude mice (6-8 weeks of age, implanted subcutaneously with 1 mm^3 Panc-1 pancreatic carcinoma fragments in the flank) were sorted into treatment groups of six mice each. […] Dosing was initiated on Day 1. The antitumor compounds were given i.v. at an estimated maximum tolerated dose (MTD) appropriate for each agent on a qd x 1 schedule (single administration of compound). […] Taxotere was given i.v. at a dose of 70 mg/kg on a qd x 1 schedule. The vehicle was given i.v. to control mice in Group 1 in each test on Day 1 (qd x 1) schedule. Treatment groups are detailed in Table 12. The study was terminated on Day 63.
The mean days of survival is the number of days after which a neoplasm reached a size of 1.5 g and the animal was euthanized. A complete response is obtained if the tumor is not palpable at the end of the study. A partial response is obtained if the tumor shrinks to a size smaller than its size on Day 1 of the study.

[4] = system: VM46 Human Colon Carcinoma Xenografts; conditions: 6 mice/group
Experimental: as §3
Female NCr-nude mice (6-8 weeks of age, implanted subcutaneously with 1 mm^3 VM46 colon carcinoma fragments in the flank) were sorted into treatment groups of six mice each. […] Dosing was initiated on Day 1. The antitumor compounds were given i.v. at an estimated maximum tolerated dose (MTD) appropriate for each agent on a qd x 1 schedule (single administration of compound). […] Taxotere was given i.v. at a dose of 70 mg/kg on a qd x 1 schedule. The vehicle was given i.v. to control mice in Group 1 in each test on Day 1 (qd x 1) schedule. Treatment groups are detailed in Table 13. The VM46 study ended on Day 64.
as §2, with “The results are summarized in table 14 and include mean days of survival (MDS), number of toxic deaths, number of survivors, number of complete or partial responses, and number with stable disease. The” for “The”

[5] = system: HCT116; assay: In Vitro cytotoxicity measured by the cell colony formation assay; type: cell-based; conditions: Homo sapiens, HCT-116; 72 h drug incubation, colonies counted after 7 days; concentration producing 50% inhibition of colony formation; read-out: IN VITRO ID 50 (nm) HCT116
Experimental: In Vitro cytotoxicity measured by the cell colony formation assay
Four hundred cells (HCT116) were plated in 60 mm Petri dishes containing 2.7 mL of medium (modified McCoy's 5a medium containing 10% fetal bovine serum and 100 units/mL penicillin and […] streptomycin). The cells were incubated in a CO2 incubator at 37 °C for 5 h for attachment to the bottom of Petri dishes. The compounds identified in Example 2 were made up fresh in medium at ten times the final concentration, and then 0.3 mL of this stock solution was added to the 2.7 mL of medium in the dish. The cells were then incubated with drugs for 72 h at 37 ° C. At the end of incubation the drug-containing media were decanted, the dishes were rinsed with 4 mL of Hank's Balance Salt Solution (HBSS), 5 mL of fresh medium was added, and the dishes were returned to the incubator for colony formation. The cell colonies were counted using a colony counter after incubation for 7 days. Cell survival was calculated and the values of ID50 (the drug concentration producing 50% inhibition of colony formation) were determined for each tested compound.

[6] = system: MX-1 Human Breast Carcinoma Xenograft; assay: In vivo evaluation of oral administration of antitumor compounds against MX-1 human breast carcinoma xenograft (Example 25); conditions: for Maximum Weight Loss (Day) / Partial Response / Stable Disease / Toxic Deaths / Mean Day of Survival (n): 6 mice/group; for Maximum Weight Loss (Day): on Day 5; for Partial Response / Stable Disease / Toxic Deaths / Mean Day of Survival (n): study end Day 63; for Mean Day of Survival (n): days until tumor reached 1.5 g; for survival compared to vehicle control mice: MX-1, single oral bolus, doses of Table 22, Day 63; for Complete Response: po, 1512 h
Source text: This study investigated the efficacy of various antitumor compounds when administered orally against the MX-1 human breast carcinoma xenograft.
(§4) The study was terminated on Day 63.

[7] = system: blood cell populations; assay: Effect of oral treatment on blood cell populations, body weight and tumor weight in MX-1 bearing mice (Example 25, Table 23); type: in vivo, nu/nu mice; conditions: for Weight: tumor weight at Day 18
Experimental: as §4
In addition to survival and tumor regression responses, the effect of treatment on blood cell populations was assessed. The major effect of these antitumor compounds on blood cell populations was a marked reduction in the neutrophil cell number. As well, monocyte depletion correlated fairly well with neutrophil reduction for each antitumor compound. […] There was a correlation between antitumor activity and reduced neutrophil count. In general, toxicity (as determined by neutrophil depletion) and weight loss correlated with efficacy. Importantly, the toxicities observed with the very efficacious antitumor compounds were manageable and reversible; neutrophil count and body weight rebounded from their low points in just a few days. Table 23 summarizes the weight reduction, neutrophil and monocyte measurements on Day 4, with tumor weight reduction calculated at Day 18: Table 23

[8] = tumor score 1 to 10, group mean
[9] = 195.1 mg/kg i.v. qd x 1, study end Day 64
[10] = Day 4, 160 mg/kg single oral bolus
[11] = Day 4, 233 mg/kg single oral bolus

CCC(=O)O[C@H]1C[C@H]2OC[C@@]2(OC(C)=O)[C@H]2[C@H](OC(=O)c3ccccc3)[C@]3(O)C[C@H](OC(=O)[C@H](O)[C@@H](NC(=O)OC(C)(C)C)c4ccsc4)C(C)=C([C@@H](O)C(=O)[C@]12C)C3(C)C [Compound 1424]
MDS (n) ([1]; 5 mice/group, 1.5 g cut-off, Day 91): 76.0 ± 5.4 (4) days | Complete Response ([1]; 5 mice/group, Day 91): 0 | Partial Response ([1]; 5 mice/group, Day 91): 1 | Stable Disease ([1]; 5 mice/group, Day 91): 0 | Survivors ([1]; 5 mice/group, Day 91): 1 | Toxic Deaths ([1]; 5 mice/group, Day 91): 0 | Mean Score [1, 8]: 3.6 ± 1.1 | MDS (n) ([2]; 2.0 g cut-off, Day 60): 30.7 ± 1.1 (2) days | Complete Response ([2]; Day 60): 0 | Partial Response ([2]; Day 60): 0 | Stable Disease ([2]; Day 60): 0 | Survivors ([2]; Day 60): 0 | Mean Score [2, 8]: 1 ± 0.6 | Complete Response [3]: 0 | Mean Score [3]: 0 ± 0 | Partial Response [3]: 0 | Stable Disease [3]: 0 | Survivors [3]: 0 | Toxic Deaths [3]: 6 | Complete Response [4, 9]: 0 | Mean Score [4, 9]: 0.8 ± 0.4 | Partial Response [4, 9]: 0 | Stable Disease [4, 9]: 0 | Survivors [4, 9]: 0 | Toxic Deaths [4, 9]: 3 | MDS (n) ([4]; 195.1 mg/kg i.v. qd x 1, study end Day 64, days until tumor reached 1.5 g): 45.4 ± 8.1 (3) days | Toxic Deaths ([4]; VM46, i.v. qd x 1 at estimated MTD): three

CCC(=O)OC1CC2OCC2(OC(C)=O)C2C(OC(=O)c3ccccc3)C3(O)CC(OC(=O)C(O)C(NC(=O)c4ccccc4)c4ccco4)C(C)=C(C(O)C(=O)C12C)C3(C)C (stereo not shown) [Compound 4017]
pIC50 [5]: > 8.00 | Maximum Weight Loss (Day) ([6]; 160 mg/kg single oral bolus): -4.3% (5) | Partial Response ([6]; 160 mg/kg single oral bolus): 0 | Stable Disease ([6]; 160 mg/kg single oral bolus): 0 | Toxic Deaths ([6]; 160 mg/kg single oral bolus): 1 | Mean Day of Survival (n) ([6]; 160 mg/kg single oral bolus): 39.4 ± 4.6 (5) days | survival compared to vehicle control mice [6]: significant survival extensions | Complete Response ([6]; 160 mg/kg): 0 | Monocytes (K/µL) [7, 10]: 0.073 K/µL | Neutrophils (K/µL) [7, 10]: 0.228 K/µL | % Reduction ([7]; reduction of monocytes, Day 4, 160 mg/kg single oral bolus): 24.0% | % Reduction ([7]; reduction of neutrophils, Day 4, 160 mg/kg single oral bolus): 75.0% | % Reduction ([7]; reduction of tumor weight at Day 18, 160 mg/kg single oral bolus): 70.5% | Weight ([7]; 160 mg/kg single oral bolus): 256.5 mg

CCC(=O)O[C@H]1C[C@H]2OC[C@@]2(OC(C)=O)[C@H]2[C@H](OC(=O)c3ccccc3)[C@]3(O)C[C@H](OC(=O)[C@H](O)[C@@H](NC(=O)OC(C)(C)C)c4ccccc4)C(C)=C([C@@H](O)C(=O)[C@]12C)C3(C)C [Compound 1458]
pIC50 [5]: > 8.00 | Maximum Weight Loss (Day) ([6]; 233 mg/kg single oral bolus): -5.8% (5) | Partial Response ([6]; 233 mg/kg single oral bolus): 0 | Stable Disease ([6]; 233 mg/kg single oral bolus): 0 | Toxic Deaths ([6]; 233 mg/kg single oral bolus): 0 | Mean Day of Survival (n) ([6]; 233 mg/kg single oral bolus): 46.0 ± 1.6 (5) days | survival compared to vehicle control mice [6]: significant survival extensions | Complete Response ([6]; 233 mg/kg): 1 | Monocytes (K/µL) [7, 11]: 0.057 K/µL | Neutrophils (K/µL) [7, 11]: 0.232 K/µL | % Reduction ([7]; reduction of monocytes, Day 4, 233 mg/kg single oral bolus): 40.6% | % Reduction ([7]; reduction of neutrophils, Day 4, 233 mg/kg single oral bolus): 74.5% | % Reduction ([7]; reduction of tumor weight at Day 18, 233 mg/kg single oral bolus): 97.5% | Weight ([7]; 233 mg/kg single oral bolus): 21.8 mg

Source: patent publication EP1285918A1, “C7 Ester substituted taxanes as antitumor agents” (Florida State University Research Foundation, Inc., priority 2001, dated 2003)
